US20090275574A1, “NOVEL COMPOUNDS-300” (ASTRAZENECA AB, priority 2008, published 2009)

How the values were obtained:
[1] = biological target: T1, hM3 (human Muscarinic receptor subtype 3) (Homo sapiens, UniProt P20309); experiment: Human M3 calcium mobilization FLIPR assay; type: cell-based; conditions: hM3 expressed in CHO cells, intracellular Ca2+ release (FLIPR)
T1 construct: expressed in transfected cells; host or cells: CHO cells (ATCC)
Experimental: (§1) Human M1, rat M1, Human M3 and Human M5 Calcium Mobilization FLIPR™ Assay The compound activity in the present invention (EC50 or IC50) is measured using a 384 plate-based imaging assay that monitors drug induced intracellular Ca^2+ release in whole cells. Activation of hM1 (human Muscarinic receptor subtype 1, gene bank access NM_000738), rM1 (rat Muscarinic receptor subtype 1, gene bank access NM_080773), hM3 (human Muscarinic receptor subtype 3, gene bank access NM_000740NM_000740) and hM5 (human Muscarinic receptor subtype 5, gene bank access NM_0121258), receptors expressed in CHO cells (Chinese hamster ovary cells, ATCC) is quantified in a Molecular Devices FLIPR IITM instrument as an increase in fluorescent signal. Inhibition of hM3 and hM5 by compounds is determined by the decrease in fluorescent signal in response to 2 nM acetylcholine activation. […] Prior to experiment, the cell culture medium is removed from the plates by inversion. […] Plates are incubated at 37° C. for 60 minutes prior to start the experiment. The incubation is terminated by washing the cells four times in assay buffer, leaving a residual 25 μl buffer per well. Cell plates are then transferred to the FLIPR, ready for compound additions. The day of experiment, acetylcholine and compounds are diluted in assay buffer in three-fold concentration range (10 points serial dilution) for addition by FLIPR instrument. For all calcium assays, a baseline reading is taken for 10 seconds followed by the addition of 12.5 μl of compounds, resulting in a total well volume of 37.5 μl. Data is collected every second for 60 pictures and then every 6 seconds for 20 pictures prior to the addition of agonist. For hM3 and hM5, before agonist addition, a second baseline reading is taken for 10 seconds followed by the addition of 12.5 μl of agonist or buffer, producing a final volume of 50 μl. After agonist stimulation, the FLIPR continues to collect data every second for 60 pictures and then every 6 seconds for 20 pictures. The fluorescence emission is read using filter 1 (emission 510-570 nm) by the FLIPR on board CCD camera. Calcium mobilization output data are calculated as the maximal relative fluorescence unit (RFU) minus the minimal value for both compound and agonist reading frame (except for hM1 and rM1 using only the maximal RFU). Data are analyzed using sigmoidal fits of a non-linear curve-fitting program (XLfit version 4.2.2 Excel add-in version 4.2.2 build 18 math 1Q version 2.1.2 build 18). All pEC50 and pIC50 values are reported as arithmetic means±standard error of mean of ‘n’ independent experiments.

cloned human M2 receptor = biological target: T2, cloned human M2 receptor (Homo sapiens, UniProt P08172); experiment: hM2 receptor GTPγS binding; type: biochemical; conditions: CHO membranes expressing hM2, [35S]GTPγS binding
T2 construct: purchased Perkin-Elmer RBHM2M; host or cells: Chinese hamster ovary cells (CHO), membranes
T2 sequence (P08172 1-466): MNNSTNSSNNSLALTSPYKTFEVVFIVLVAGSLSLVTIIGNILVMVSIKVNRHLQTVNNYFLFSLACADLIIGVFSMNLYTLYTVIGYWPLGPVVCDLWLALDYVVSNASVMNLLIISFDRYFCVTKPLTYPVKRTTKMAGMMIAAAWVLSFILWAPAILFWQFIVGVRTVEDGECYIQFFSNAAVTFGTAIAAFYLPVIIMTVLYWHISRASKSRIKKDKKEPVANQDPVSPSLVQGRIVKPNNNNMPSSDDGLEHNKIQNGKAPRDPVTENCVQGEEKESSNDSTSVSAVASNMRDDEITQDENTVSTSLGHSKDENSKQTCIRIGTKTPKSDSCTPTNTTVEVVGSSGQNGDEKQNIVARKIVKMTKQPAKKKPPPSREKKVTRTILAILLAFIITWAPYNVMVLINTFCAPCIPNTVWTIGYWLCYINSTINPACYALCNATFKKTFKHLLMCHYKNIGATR
Experimental: hM2 Receptor GTPγS Binding Membranes produced from Chinese hamster ovary cells (CHO) expressing the cloned human M2 receptor (human Muscarinic receptor subtype 2, gene bank access NM_000739), are obtained from Perkin-Elmer (RBHM2M). The membranes are thawed at 37° C., passed 3 times through a 23-gauge blunt-end needle, diluted in the GTPγS binding buffer (50 mM Hepes, 20 mM NaOH, 100 mM NaCl, 1 mM EDTA, 5 mM MgCl2, pH 7.4, 100 μM DTT). The EC50, IC50 and Emax of the compounds of the invention are evaluated from 10-point dose-response curves (three fold concentration range) done in 60 μl in 384-well non-specific binding surface plate (Corning). Ten microliters from the dose-response curves plate (5× concentration) are transferred to another 384 well plate containing 25 μl of the following: 5 μg of hM2 membranes, 500 μg of Flashblue beads (Perkin-Elmer) and GDP 25 μM. An additional 15 μl containing 3.3× (60,000 dpm) of GTPγ^35S (0.4 nM final) are added to the wells resulting in a total well volume of 50 μl. Basal and maximal stimulated [^35S]GTPγS binding are determined in absence and presence of 30 μM final of acetylcholine agonist. The membranes/beads mix are pre-incubated for 15 minutes at room temperature with 25 μM GDP prior to distribution in plates (12.5 μM final). The reversal of acetylcholine-induced stimulation (2 μM final) of [^35S]GTPγS binding is used to assay the antagonist properties (IC50) of the compounds. The plates are incubated for 60 minutes at room temperature then centrifuged at 400 rpm for 5 minutes. The radioactivity (cpm) is counted in a Trilux (Perkin-Elmer). Values of EC50, IC50 and Emax are obtained using sigmoidal fits of a non-linear curve-fitting program (XLfit version 4.2.2 Excel add-in version 4.2.2 build 18 math 1Q version 2.1.2 build 18) of percent stimulated [^35S]GTPγS binding vs. log(molar ligand). All pEC50 and pIC50 values are reported as arithmetic means±standard error of mean of ‘n’ independent experiments.

[2] = biological target: T3, hM5 (human Muscarinic receptor subtype 5) (Homo sapiens, UniProt P08912); experiment: Human M5 calcium mobilization FLIPR assay; type: cell-based; conditions: hM5 expressed in CHO cells, intracellular Ca2+ release (FLIPR)
T3 construct: expressed in transfected cells; host or cells: CHO cells (ATCC)
T3 sequence (P08912 1-532): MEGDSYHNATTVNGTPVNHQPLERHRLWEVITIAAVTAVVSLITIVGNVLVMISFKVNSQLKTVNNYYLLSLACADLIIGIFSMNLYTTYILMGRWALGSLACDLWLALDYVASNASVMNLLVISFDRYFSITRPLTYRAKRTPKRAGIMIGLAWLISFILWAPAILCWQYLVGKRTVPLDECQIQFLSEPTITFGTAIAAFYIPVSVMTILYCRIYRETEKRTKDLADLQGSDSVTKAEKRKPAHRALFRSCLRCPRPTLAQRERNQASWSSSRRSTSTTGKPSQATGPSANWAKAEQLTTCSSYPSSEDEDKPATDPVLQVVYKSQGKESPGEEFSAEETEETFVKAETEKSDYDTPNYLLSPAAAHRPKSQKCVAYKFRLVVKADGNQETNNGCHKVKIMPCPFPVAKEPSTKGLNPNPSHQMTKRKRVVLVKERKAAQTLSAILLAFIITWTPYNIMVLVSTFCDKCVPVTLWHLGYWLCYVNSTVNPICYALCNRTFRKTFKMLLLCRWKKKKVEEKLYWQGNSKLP
Experimental: as §1

[3] = biological target: T4, hM1 (human Muscarinic receptor subtype 1) (Homo sapiens, UniProt P11229); experiment: Human M1 calcium mobilization FLIPR assay; type: cell-based; conditions: hM1 expressed in CHO cells, intracellular Ca2+ release (FLIPR)
T4 construct: expressed in transfected cells; host or cells: CHO cells (ATCC)
T4 sequence (P11229 1-460): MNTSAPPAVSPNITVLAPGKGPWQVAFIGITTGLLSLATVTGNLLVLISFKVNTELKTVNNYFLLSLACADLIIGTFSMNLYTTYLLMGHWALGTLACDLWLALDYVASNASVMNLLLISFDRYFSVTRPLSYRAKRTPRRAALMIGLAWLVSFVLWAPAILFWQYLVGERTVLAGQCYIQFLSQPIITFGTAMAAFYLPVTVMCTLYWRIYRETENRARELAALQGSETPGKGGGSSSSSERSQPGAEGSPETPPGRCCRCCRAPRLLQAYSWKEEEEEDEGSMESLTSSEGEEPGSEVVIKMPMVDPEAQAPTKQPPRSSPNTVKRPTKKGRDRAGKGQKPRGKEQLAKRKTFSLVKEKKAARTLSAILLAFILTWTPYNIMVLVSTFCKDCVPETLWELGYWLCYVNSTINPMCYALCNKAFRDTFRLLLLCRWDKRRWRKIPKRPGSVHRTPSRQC
Experimental: as §1

[4] = one or more of the biological assays described above (unspecified); conditions: tested using one or more of the biological assays described above
Experimental: The compound activity in the present invention (EC50 or IC50) is measured using a 384 plate-based imaging assay that monitors drug induced intracellular Ca^2+ release in whole cells. Activation of hM1 (human Muscarinic receptor subtype 1, gene bank access NM_000738), rM1 (rat Muscarinic receptor subtype 1, gene bank access NM_080773), hM3 (human Muscarinic receptor subtype 3, gene bank access NM_000740NM_000740) and hM5 (human Muscarinic receptor subtype 5, gene bank access NM_0121258), receptors expressed in CHO cells (Chinese hamster ovary cells, ATCC) is quantified in a Molecular Devices FLIPR IITM instrument as an increase in fluorescent signal. Inhibition of hM3 and hM5 by compounds is determined by the decrease in fluorescent signal in response to 2 nM acetylcholine activation.
Membranes produced from Chinese hamster ovary cells (CHO) expressing the cloned human M2 receptor (human Muscarinic receptor subtype 2, gene bank access NM_000739), are obtained from Perkin-Elmer (RBHM2M). […] The EC50, IC50 and Emax of the compounds of the invention are evaluated from 10-point dose-response curves (three fold concentration range) done in 60 μl in 384-well non-specific binding surface plate (Corning). […] Basal and maximal stimulated [^35S]GTPγS binding are determined in absence and presence of 30 μM final of acetylcholine agonist. […] The radioactivity (cpm) is counted in a Trilux (Perkin-Elmer). […]

T1 sequence (P20309 whole entry): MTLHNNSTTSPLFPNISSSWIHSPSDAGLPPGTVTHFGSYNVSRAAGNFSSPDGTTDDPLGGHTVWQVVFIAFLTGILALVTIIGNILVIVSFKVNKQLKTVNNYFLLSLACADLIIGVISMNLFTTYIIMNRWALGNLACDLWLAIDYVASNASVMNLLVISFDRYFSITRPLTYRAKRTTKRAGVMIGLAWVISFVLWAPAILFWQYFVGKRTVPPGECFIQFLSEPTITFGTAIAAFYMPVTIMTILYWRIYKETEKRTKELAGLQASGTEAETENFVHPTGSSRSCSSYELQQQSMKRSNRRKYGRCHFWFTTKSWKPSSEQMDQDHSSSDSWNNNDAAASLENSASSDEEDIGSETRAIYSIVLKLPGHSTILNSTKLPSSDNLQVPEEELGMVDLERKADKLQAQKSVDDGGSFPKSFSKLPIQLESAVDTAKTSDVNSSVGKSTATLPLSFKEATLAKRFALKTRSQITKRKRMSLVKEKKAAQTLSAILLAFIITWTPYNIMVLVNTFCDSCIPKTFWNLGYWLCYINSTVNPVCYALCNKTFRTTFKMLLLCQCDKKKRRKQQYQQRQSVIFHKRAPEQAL

EC50 [1] [µM] | EC50 (cloned human M2 receptor) [µM] | EC50 [2] [µM] | EC50 [3] [µM] | SMILES | efficacy [4]
> 40 | 1.7 | > 14.5 | 0.058 | CC(C)OCC1CCC(N2CCC(N3C(=O)NC[C@H]4CCCC[C@@H]43)CC2)CC1 (single isomer, unassigned) [Example 03] | –
> 40 | > 90 | > 40 | 0.051 | O=C1CO[C@H]2CCCC[C@@H]2N1C1CCN(C2CCC(COCC3CCC3)CC2)CC1 (single isomer, unassigned) [Example 28] | –
> 40 | > 90 | > 40 | 0.15 | O=C1CO[C@H]2CCCC[C@@H]2N1C1CCN(C2CCC(COCC3CCC3)CC2)CC1 (single isomer, unassigned) [Example 29] | –
– | – | – | – | CC(C)OC1CCC(N2CCC(N3C(=O)NC[C@H]4CCCC[C@@H]43)CC2)CC1 (single isomer, unassigned) [diastereomer 2] | does not show efficacy
